Test results: patent US20230017532A1 (Hoffmann-La Roche Inc., priority 2018, published 2023)
Structures can show the parent of a compound that is named as a salt.

The compounds below were run on Acinetobacter baumannii ATCC17961 (assay: Antimicrobial susceptibility testing: 90% growth inhibitory concentration (IC90) determination, Iso-Sensitest broth, OD 600 nm). Details: 90% growth inhibitory concentration, Acinetobacter baumannii ATCC17961, Iso-Sensitest broth, OD 600 nm over 16 h; read-out: ATCC 17961 IC90.
Format: cell-based
How it was run: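 Growth of bacteria (~5×10^5 CFU/ml, Iso-Sensitest medium, 35±2 °C) was followed by OD at 600 nm at 20-min intervals over 16 h against a 10-point twofold compound series (e.g. 50–0.097 μM final). Concentration giving 90% inhibition in log phase was reported.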

Structure (SMILES)	IC90 [µM]
C#CCOc1ccc(-c2cnc3c(Nc4ccc(C(=O)N[C@@H](C)CNCCNC(C)=O)c(CC)c4)nccn23)c(F)c1F [Example 201, N-[(1S)-2-(2-acetamidoethyl-amino)-1-methyl-ethyl]-4-[[3-(2,3-difluoro-4-prop-2-ynoxy-phenyl)imidazo[1,2-a]pyrazin-8-yl]amino]-2-ethyl-benzamide]	0.36
CCc1cc(Nc2nccn3c(-c4ccc(OC)cc4CC)cnc23)ccc1C(=O)NCCOCCN [Example 206, N-(2-(2-amino-ethoxy)ethyl)-2-ethyl-4-((3-(2-ethyl-4-methoxyphenyl)imidazo[1,2-a]pyrazin-8-yl)amino)benzamide hydrochloride]	0.26
COc1ccc(-c2cnc3c(Nc4cc(C)c(C(=O)NCCOCCOCCN)c(F)c4)nccn23)c(F)c1F [Example 208, N-(2-(2-(2-aminoethoxy)ethoxy)ethyl)-4-((3-(2,3-difluoro-4-methoxyphenyl)imidazo[1,2-a]pyrazin-8-yl)amino)-2-fluoro-6-methyl-benzamide dihydrochloride]	0.23
CCc1cc(Nc2nccn3c(-c4cc(F)cc(OC)c4)cnc23)ccc1C(=O)NCCOCCN [Example 211, N-[2-(2-amino-ethoxy)ethyl]-2-ethyl-4-[[3-(3-fluoro-5-methoxy-phenyl)imidazo [1,2-a]pyrazin-8-yl]amino] benzamide]	0.94
CCc1cc(Nc2nccn3c(-c4cc(C)cc(F)c4)cnc23)ccc1C(=O)NCCOCCN [Example 213, N-[2-(2-amino-ethoxy)ethyl]-2-ethyl-4-[[3-(3-fluoro-5-methyl-phenyl)imidazo [1,2-a]pyrazin-8-yl]amino] benzamide]	0.81
CCc1cc(Nc2nccn3c(-c4c(F)cccc4F)cnc23)ccc1C(=O)NCCOCCN [Example 214, N-[2-(2-amino-ethoxy)ethyl]-4-[[3-(2,6-difluorophenyl)imidazo[1,2-a]pyrazin-8-yl]amino]-2-ethyl-benzamide]	0.95
CCc1cc(Nc2nccn3c(-c4ccc(OC)c(F)c4F)cnc23)ccc1C(=O)N[C@@H](C)CNCCN [Example 219, N-[(1S)-2-(2-aminoethyl-amino)-1-methyl-ethyl]-4-[[3-(2,3-difluoro-4-methoxy-phenyl)imidazo[1,2-a]pyrazin-8-yl]amino]-2-ethyl-benzamide; formic acid]	0.58
CCc1cc(Nc2nccn3c(-c4cc(Cl)c(OC)cc4F)cnc23)ccc1C(=O)NCCOCCN [Example 220, N-[2-(2-amino-ethoxy)ethyl]-4-[[3-(5-chloro-2-fluoro-4-methoxy-phenyl)imidazo[1,2-a]pyrazin-8-yl]amino]-2-ethyl-benzamide]	0.08

Now from value to compound:

IC90 [µM]	Structure (SMILES)
0.2	CCc1cc(Nc2nccn3c(-c4ccc(OC)c(F)c4F)cnc23)cc(F)c1C(=O)NCCOCCN [Example 202, N-(2-(2-amino-ethoxy)ethyl)-4-((3-(2,3-difluoro-4-methoxyphenyl)imidazo[1,2-a]pyrazin-8-yl)amino)-2-ethyl-6-fluorobenzamide dihydrochloride]
0.43	CCc1cc(Nc2nccn3c(-c4ccc(OC)c(F)c4F)cnc23)ccc1C(=O)NCCOCC(=O)N1CCN[C@H](CO)C1 [Example 203, 4-[[3-(2,3-difluoro-4-methoxy-phenyl)imidazo [1,2-a]pyrazin-8-yl]amino]-2-ethyl-N-[2-[2-[(3S)-3-(hydroxymethyl)piperazin-1-yl]-2-oxo-ethoxy]ethyl]benzamide]
0.53	CCc1cc(Nc2nccn3c(-c4ccc(Oc5ccccn5)c(F)c4F)cnc23)ccc1C(=O)NCCOCC(=O)N1CCN[C@H](CO)C1 [Example 204, 4-[[3-[2,3-difluoro-4-(2-pyridyloxy)phenyl]imidazo [1,2-a]pyrazin-8-yl]amino]-2-ethyl-N-[2-[2-[(3S)-3-(hydroxymethyl)piperazin-1-yl]-2-oxo-ethoxy]ethyl]benzamide]
0.59	CCc1cc(Nc2nccn3c(-c4ccc(Oc5ccccn5)c(F)c4F)cnc23)ccc1C(=O)NCCNCC(=O)N1CCN[C@H](CO)C1 [Example 205, 4-[[3-[2,3-difluoro-4-(2-pyridyloxy)phenyl]imidazo [1,2-a]pyrazin-8-yl]amino]-2-ethyl-N-[2-[[2-[(3S)-3-(hydroxymethyl)piperazin-1-yl]-2-oxo-ethyl]amino]ethyl]benzamide]
0.35	C#CCOc1ccc(-c2cnc3c(Nc4ccc(C(=O)N[C@@H](C)CNCC(N)=O)c(CC)c4)nccn23)c(F)c1F [Example 207, N-[(1S)-2-[(2-amino-2-oxo-ethyl)amino]-1-methyl-ethyl]-4-[[3-(2,3-difluoro-4-prop-2-ynoxy-phenyl)imidazo [1,2-a]pyrazin-8-yl]amino]-2-ethyl-benzamide]
0.33	CCc1cc(Nc2nccn3c(-c4cccc(F)c4F)cnc23)ccc1C(=O)NCCOCCN [Example 209, N-[2-(2-amino-ethoxy)ethyl]-4-[[3-(2,3-difluoro-phenyl)imidazo [1,2-a]pyrazin-8-yl]amino]-2-ethyl-benzamide]
0.55	CCc1cc(Nc2nccn3c(-c4cc(F)ccc4F)cnc23)ccc1C(=O)NCCOCCN [Example 210, N-[2-(2-amino-ethoxy)ethyl]-4-[[3-(2,5-difluorophenyl)imidazo[1,2-a]pyrazin-8-yl]amino]-2-ethyl-benzamide]
0.4	COc1ccc(-c2cnc3c(Nc4cc(C)c(C(=O)NCCOCCN=C(N(C)C)N(C)C)c(F)c4)nccn23)c(F)c1F [Example 212, N-(2-(2-((bis(dimethyl-amino)methylene)amino)ethoxy)ethyl)-4-((3-(2,3-difluoro-4-methoxyphenyl)imidazo[1,2-a]pyrazin-8-yl)amino)-2-fluoro-6-methylbenzamide formate]
0.23	COc1ccc(-c2cnc3c(Nc4cc(C)c(C(=O)NCCOCCNC(=O)[C@@H]5C[C@@H](O)CN5)c(F)c4)nccn23)c(F)c1F [Example 215, (2S,4R)-N-(2-(2-(4-((3-(2,3-difluoro-4-methoxyphenyl)imidazo[1,2-a]pyrazin-8-yl)amino)-2-fluoro-6-methyl-benzamido)ethoxy)ethyl)-4-hydroxy-pyrrolidine-2-carboxamide]
0.49	CCc1cc(Nc2nccn3c(-c4ccc(OC)c(F)c4F)cnc23)ccc1C(=O)NCCNCCNCC(=O)O [Example 216, (2-((2-(4-((3-(2,3-difluoro-4-methoxyphenyl)imidazo[1,2-a]pyrazin-8-yl)amino)-2-ethyl-benzamido)ethyl)amino)ethyl) glycine]
0.1	COc1ccc(-c2cnc3c(Nc4cc(F)c(C(=O)NCCOCCN)c(Br)c4)nccn23)c(F)c1F [Example 217, N-(2-(2-amino-ethoxy)ethyl)-2-bromo-4-((3-(2,3-difluoro-4-methoxyphenyl)imidazo[1,2-a]pyrazin-8-yl)amino)-6-fluorobenzamide dihydrochloride]
0.54	CCc1cc(Nc2nccn3c(-c4ccc(OC)c(F)c4F)cnc23)ccc1C(=O)N[C@@H](C)CNCCO [Example 218, 4-[[3-(2,3-difluoro-4-methoxy-phenyl)imidazo [1,2-a]pyrazin-8-yl]amino]-2-ethyl-N-[(1S)-2-(2-hydroxyethyl-amino)-1-methyl-ethyl]benzamide]
